# “Also recorded” adds a separate entry of the source.
# Legend:
# [1] = cited from earlier work
# CYP2C19 [2] = biological target: T1, CYP2C19 (Homo sapiens, UniProt P33261); assay type: in vitro ADME
# CYP2C19 [3] = biological target: T1, CYP2C19; test: CYP2C19 inhibition by XueBiJing compounds, cDNA-expressed enzyme [CEC→CHC]; assay type: in vitro ADME
# [4] = XueBiJing compounds, cited from earlier work
# OAT3 = biological target: T2, OAT3 (Homo sapiens, UniProt Q8TCC7); assay type: in vitro ADME
# T2 sequence (Q8TCC7 1-542): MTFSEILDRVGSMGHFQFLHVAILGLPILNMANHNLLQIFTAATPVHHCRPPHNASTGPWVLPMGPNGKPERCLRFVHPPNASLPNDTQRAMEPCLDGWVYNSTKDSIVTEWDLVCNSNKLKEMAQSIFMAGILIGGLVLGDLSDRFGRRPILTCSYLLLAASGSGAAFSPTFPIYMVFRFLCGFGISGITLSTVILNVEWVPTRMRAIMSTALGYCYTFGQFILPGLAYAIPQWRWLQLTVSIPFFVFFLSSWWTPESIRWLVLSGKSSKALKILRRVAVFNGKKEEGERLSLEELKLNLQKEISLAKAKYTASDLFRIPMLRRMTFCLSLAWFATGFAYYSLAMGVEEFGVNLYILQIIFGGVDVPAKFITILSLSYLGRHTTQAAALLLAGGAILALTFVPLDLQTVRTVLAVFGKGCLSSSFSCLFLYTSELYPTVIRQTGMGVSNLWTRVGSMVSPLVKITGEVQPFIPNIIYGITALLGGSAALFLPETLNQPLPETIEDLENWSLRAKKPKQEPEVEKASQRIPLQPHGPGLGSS
# CYP2C9 = CYP2C9 (Homo sapiens, UniProt P11712); test: CYP2C9 inhibition by XueBiJing compounds, cDNA-expressed enzyme [MFC→HFC]; assay type: in vitro ADME
# UGT1A1 = biological target: T3, UGT1A1 (Homo sapiens, UniProt P22309); test: UGT1A1 inhibition by XueBiJing compounds, cDNA-expressed enzyme [E2→E23βG]; assay type: in vitro ADME
# T3 sequence (P22309 26-533): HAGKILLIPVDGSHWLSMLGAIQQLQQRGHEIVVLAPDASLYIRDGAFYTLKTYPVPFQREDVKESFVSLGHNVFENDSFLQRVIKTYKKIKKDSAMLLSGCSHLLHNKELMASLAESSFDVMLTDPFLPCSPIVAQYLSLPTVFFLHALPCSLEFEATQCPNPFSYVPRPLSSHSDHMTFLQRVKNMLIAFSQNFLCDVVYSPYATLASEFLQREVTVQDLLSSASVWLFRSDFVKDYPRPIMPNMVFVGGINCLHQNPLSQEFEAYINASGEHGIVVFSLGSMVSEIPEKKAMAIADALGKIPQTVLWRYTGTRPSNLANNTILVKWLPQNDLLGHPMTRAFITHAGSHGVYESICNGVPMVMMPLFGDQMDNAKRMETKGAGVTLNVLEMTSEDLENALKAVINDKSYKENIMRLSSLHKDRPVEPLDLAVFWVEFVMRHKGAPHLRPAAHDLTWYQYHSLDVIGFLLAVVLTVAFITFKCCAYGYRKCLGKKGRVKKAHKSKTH
# CYP1A2 = conditions: higher concentrations; range over the named compounds and enzymes
# [5] = human, XueBiJing 100 mL via 75-min intravenous infusion
# T1 sequence (P33261 whole entry): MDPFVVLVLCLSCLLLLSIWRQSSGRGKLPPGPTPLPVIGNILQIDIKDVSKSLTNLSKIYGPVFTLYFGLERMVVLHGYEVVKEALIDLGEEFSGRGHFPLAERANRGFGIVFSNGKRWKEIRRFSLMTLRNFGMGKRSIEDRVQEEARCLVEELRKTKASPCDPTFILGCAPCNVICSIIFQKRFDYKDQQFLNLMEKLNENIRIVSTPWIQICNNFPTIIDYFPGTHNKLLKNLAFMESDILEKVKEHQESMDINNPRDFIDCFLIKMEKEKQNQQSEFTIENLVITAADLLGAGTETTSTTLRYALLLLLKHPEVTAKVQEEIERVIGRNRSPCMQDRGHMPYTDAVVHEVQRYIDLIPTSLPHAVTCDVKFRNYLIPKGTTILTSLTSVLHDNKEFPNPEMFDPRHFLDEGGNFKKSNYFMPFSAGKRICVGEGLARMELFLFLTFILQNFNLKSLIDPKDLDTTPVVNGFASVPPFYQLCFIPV
# Sequence of CYP2C9 (P11712 whole entry): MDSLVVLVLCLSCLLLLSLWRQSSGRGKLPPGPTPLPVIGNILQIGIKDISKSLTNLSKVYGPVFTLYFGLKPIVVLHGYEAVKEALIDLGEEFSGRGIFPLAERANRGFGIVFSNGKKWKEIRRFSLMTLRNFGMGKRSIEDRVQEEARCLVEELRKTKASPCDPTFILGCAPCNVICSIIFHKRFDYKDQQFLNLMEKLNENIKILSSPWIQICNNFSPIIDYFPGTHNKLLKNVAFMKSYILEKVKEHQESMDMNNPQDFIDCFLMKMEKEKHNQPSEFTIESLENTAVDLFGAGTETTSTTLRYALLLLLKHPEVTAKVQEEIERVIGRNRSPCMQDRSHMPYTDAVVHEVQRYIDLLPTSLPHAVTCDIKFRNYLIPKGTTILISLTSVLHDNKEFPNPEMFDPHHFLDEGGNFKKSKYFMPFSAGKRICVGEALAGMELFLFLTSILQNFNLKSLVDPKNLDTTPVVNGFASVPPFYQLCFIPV
compound,measurement,setting,value
"O=C(/C=C/c1ccc(O)c2c1[C@H](C(=O)O[C@H](Cc1ccc(O)c(O)c1)C(=O)O)[C@@H](c1ccc(O)c(O)c1)O2)O[C@H](Cc1ccc(O)c(O)c1)C(=O)O [X10, salvianolic acid B]",fu-p (unbound fraction in plasma),[1]; human plasma,3%
same,Cmax,[1]; [5],100 nM
same,VSS,[1]; [5],1.28 L/kg
same,t1/2,[1]; [5],12 min
same,Major elimination route,[1]; human,Hepatobiliary excretion; also recorded: Hepatic methylation
same,Time-dependent inhibition of CYP2C19,CYP2C19 [2],negligible
same,IC50,CYP2C19 [3],19 ± 4 µM
same,inhibition at 100 μmol/L,"CYP2C19 [3]; human, cDNA-expressed CYP2C19, probe CEC (25 μmol/L)",68 to 80%
same,pKa,[4],2.8
same,LogD(7.4),[4]; pH 7.4,−2.8
same,IC50,OAT3,31 ± 8 µM
same,IC50,CYP2C9,75 ± 13 µM
same,inhibition at 100 μmol/L,"CYP2C9; human, cDNA-expressed CYP2C9, probe MFC (75 μmol/L)",68 to 80%
same,IC50,UGT1A1,10 ± 1 µM
same,inhibition at 100 μmol/L,"UGT1A1; human, cDNA-expressed UGT1A1, probe E2 (20 μmol/L), E23βG formed",> 90%
same,"mRNA-T/U ratio, CYP1A2",CYP1A2,4.0 to 9.6

# From publication PMC6804443 (Acta Pharmaceutica Sinica. B, 2019)
